Assay [1] has as its system DSS-induced colitis. The assay can be described thus: DSS-induced colitis mouse model (experimental ulcerative colitis). The format is in vivo. The conditions noted are these: for Fecal scoring average value: score 0-3. The procedure: In this Example, mouse models to which dextran sulfate sodium salt (DSS) is used will be described as colitis models. When DSS is administered by being mixed in drinking water of the mouse, an experimental ulcerative colitis model similar to human ulcerative colitis in terms of symptoms such as suppression of body weight increase, blood in stools, and anemia and formation of colon erosion and further lacking intestinal lesion was build (Non-Patent Literature 3). A suppression effect of Compound X on colitis in such a model as the representative colitis model was examined. For the evaluation items, recovery from diarrhea and body weight loss by colitis, and the length and weight of the colon were examined as changes in colon properties, which are widely known to occur by DSS-induced colitis.
For treatment, C57BL/6J, male mice were purchased from CHARLES RIVER LABORATORIES JAPAN, INC. in accordance with previous literature (Non-Patent Literature 2) and 5-week old mice with no abnormal general conditions during quarantine and acclimation period were used for the experiment. After acclimation, the animals were divided in such a way as to be 1 mouse per cage. DSS used in the experiment having a molecular weight of from 36,000 to 50,000 Da was purchased from MP Bio Japan. DSS was added to tap water in such a way as to be 3% and suspended for causing colitis. The suspension was prepared once every 3 days and freely provided to each of the mice as water supply. A solution from which DSS was removed was provided as water supply to a non-pathological control group.
After group division, each of the test substances of Table 1 was suspended in a solution of 0.5% sodium carboxymethyl cellulose (hereinafter, CMC, Nacalai Tesque Inc.) in such a way as to be each treatment of Table 1 and orally administered once daily. […] These control groups, Groups 1 and 2, were orally administered, as the test substance, with the 0.5% CMC solution used as the medium.
Drinking water after the group division was typical water for drinking.
The test started with 6 mice in Group No. 1 and 10 mice each in Group Nos. 2 to 6.
Body weights were measured on the DSS administration starting day (day −5), DSS administration last day (day 0), on day 3, day 5, day 8, and day 10 of test substance administration.
The therapeutic effect was evaluated by observing changes in blood in stools caused by enteritis as the body weight recovery alone can be considered that the body weight increase might have been promoted simply by the growth. Mice feces were observed on the DSS administration starting day (day-5), DSS administration last day (day 0), on day 3, day 5, day 8, and day 10 of test substance administration and scored in accordance with the criteria of Table 2.
(§1) For evaluating the therapeutic effect of Compound X, the length and weight of the colon were measured. The mice were euthanized under anesthesia on day 10 of test substance administration and dissected to remove the colon. The removed colon was quickly measured for a length in a relaxed state. Subsequently, feces in the intestinal tract were removed and sufficiently washed with phosphate buffered saline (Wako Pure Chemical Industries, Ltd.) and measured for a wet weight.

For assay [2], the system named is Oxa-induced colitis. The assay can be described thus: Oxazolone (Oxa)-induced colitis mouse model. Type of assay: in vivo. The conditions noted are these: for Colon length compared with Vehicle group / Colon wet weight compared with Vehicle group: Group Nos. 3 to 6 of Table 7, in words; for Colon length / Colon weight (wet weight per length): 6 days, day 7, mean ± SD.
Description: In this Example, mouse models to which oxazolone (4-ethoxymethylene-2-phenyl-2-oxazolin-5-on, hereinafter, Oxa) is used will be described as colitis models. When Oxa was first applied to skin, subsequently administered enterally after a certain period of time, an experimental ulcerative colitis model similar to human ulcerative colitis in terms of not only symptoms such as suppression of body weight increase, blood in stools, and anemia and formation of colon erosion but also immune cells was built (Non-Patent Literature 4). A suppression effect of Compound X on colitis in such a model as the test model showing pathological conditions more similar to human ulcerative colitis was examined. For the examination items, the length and weight of the colon were examined as changes in colon properties are widely known to occur also in this model.
For treatment, Balb/c, male mice were purchased from CHARLES RIVER LABORATORIES JAPAN, INC. in accordance with previous literature (Non-Patent Literature 5) and 8-week old mice with no abnormal general conditions during quarantine and acclimation period were used for the experiment. After acclimation, the animals were divided in such a way as to be 1 mouse per cage. Oxa used in the experiment was purchased from Sigma.
Fur at back of the neck was shaved in an area of 1.5×1.5 cm under anesthesia, and 150 μL (a 100% ethanol solution) of 3% (wt/vol) Oxa was added using a pipette and applied between the shoulders to sensitize (Day 1). The mice were kept under such a typical breeding environment, fasted for 16 hours from Day 7 (water supply was continued), and subsequently on Day 8 100 μL of a solution of 1% (wt/vol) Oxa in 50% ethanol was transanally administered into the rectum (3.5 cm from the anus) using a catheter under anesthesia. Hereinafter, the above treatment is described as Oxa treatment. After treatment, typical feeding breeding was carried out.
Starting on the day following intrarectal administration of Oxa, test substances were orally administered (once daily, for 6 days). 5-Aminosalicylic acid (hereinafter 5-ASA, Tokyo Chemical Industry, Co., Ltd.) and prednisolone (hereinafter, PSL, Sigma), which are anti-inflammatory agents used for treating ulcerative colitis, were used as positive controls for the test. After group division, each of the test substances of Table 6 was suspended in a solution of 0.5% sodium carboxymethyl cellulose (hereinafter, CMC, Nacalai Tesque Inc.) in such a way as to be each treatment of Table 6 and orally administered once daily. […] These control groups, Groups 1 and 2, were orally administered, as the test substance, with the 0.5% CMC solution which was used as the medium.
The test started with 6 mice in Group No. 1 and 9 mice each in Group Nos. 2 to 6. After the treatment started, death of animals in Group Nos. 2 to 6 due to the cause considered enteritis from Oxa treatment was observed and thus 6 mice in Group Nos. 1 and 3, and 5 mice in Group Nos. 2 and 6, and 7 mice in Group Nos. 4 and 5 were finally used for analysis.
as §1, with “It is generally acknowledged as a known fact that Oxa treatment causes colon tissue changes such as the length of colon is shortened while the weight increases. For” for “For”, “7” for “10”, “Oxa treatment” for “test substance administration”

Setting [3] is: DSS + 50 mg/kg/day oral, day 3, mean ± SD.
Where [4] appears, read: DSS + 50 mg/kg/day oral, day 5, mean ± SD.
The mark [5] stands for this setting: Oxa treatment + 50 mg/kg/day oral, 50 mg/kg/day.
Where [6] appears, read: Oxa treatment + 5 mg/kg/day oral, 5 mg/kg/day.

Structures are written as SMILES. Values joined by “and” are separate entries in the source; they are usually repeats but may differ in a detail not shown here. Identical values can stand only once.

For `Nc1ccc(O)c(C(=O)O)c1` [Compound 5-ASA, 5-Aminosalicylic acid, reference compound], the “Body weight recovery compared with the DSS administration only” value in assay [1] (50 mg/kg/day oral, in words) is given as “significant body weight recovery”. For the same compound, in assay [1] (50 mg/kg/day oral, in words), the “Time-dependent changes in blood feces score versus DSS administration group” value is on record as “did not have a difference”. In addition, the “Fecal scoring average value” in assay [1] (DSS + 50 mg/kg/day oral, day 0 (DSS last day), mean ± SD) amounted to 1.0 ± 0.0; in assay [1] (setting [3]) it was 1.5 ± 0.5; in assay [1] (setting [4]), 1.8 ± 1.0; in assay [1] (DSS + 50 mg/kg/day oral, day 8, mean ± SD), 0.0 ± 0.0; in assay [1] (DSS + 50 mg/kg/day oral, day 10, mean ± SD) it was 0.0 ± 0.0; in assay [1] (DSS + 50 mg/kg/day oral, day −5 (before test substance), mean ± SD) it was 0.0 ± 0.0. The Body weight in assay [1] (setting [3]) was determined as 15.5 ± 1.0 g; in assay [1] (setting [4]) it was 16.4 ± 1.7 g. Moreover, the Colon length in assay [1] (DSS + 50 mg/kg/day oral, day 10, mean ± SD, 50 mg/kg/day) is 6.54 cm and 6.54 ± 0.29 cm; in assay [2] (setting [5]) it was 7.41 cm and 7.41 ± 0.37 cm. For the same compound, the “Colon length compared with DSS group” value in assay [1] (Group Nos. 3 to 5 (1, 10, 100 mg/kg/day) and Group No. 6 (50 mg/kg/day), in words) is reported as “longer length of the colon than DSS group”. Further, the “Colon wet weight compared with DSS group” value in assay [1] (all treated groups of Table 5, in words) is listed as “suppressed weight increases compared with DSS group”. Also, in assay [2], the “Colon length compared with Vehicle group” value is reported as “longer length of the colon than Vehicle group”. Besides, the “Colon wet weight compared with Vehicle group” value in assay [2] was “suppressed weight increases compared with Vehicle group”. Besides, the “Colon weight (wet weight per length)” value in assay [2] (setting [5]) was 4.12 mg/mm and 4.12 ± 0.56 mg/mm.
For the compound `C[C@]12C=CC(=O)C=C1CC[C@@H]1[C@@H]2[C@@H](O)C[C@@]2(C)[C@H]1CC[C@]2(O)C(=O)CO` [PSL, prednisolone], in assay [2], the “Colon length compared with Vehicle group” value is on record as “longer length of the colon than Vehicle group” and the “Colon wet weight compared with Vehicle group” value is given as “suppressed weight increases compared with Vehicle group”. Moreover, in assay [2] (setting [6]), the Colon length was 8.20 cm and 8.20 ± 0.52 cm; the “Colon weight (wet weight per length)” value is 3.37 mg/mm and 3.37 ± 0.36 mg/mm.

The record behind these values is patent publication US20210052537A1, “COLITIS AMELIORATING AGENT” (ASTA PHARMACEUTICALS, CO., LTD., priority 2018, published 2021).
